Entries after “also recorded” stand apart in the source; their conditions may differ.

Data set [1] relates to EGF signaling in epithelial cells of ascites or pleural effusion samples. In words: Summary of SCNP analysis of ascites or pleural effusion samples. The data set is classed as cell-based, human. An excerpt: This analysis identified epithelial cells with inducible EGF signaling in ⅘ ascites or pleural effusion samples. In each of the 4 positive cases, induced signaling was inhibited by the PI3K inhibitor, GDC-0941.

Data set [2] relates to p-AKT and p-ERK (PI3K and MAP Kinase pathways) in epithelial cells of bladder washes. In words: SCNP of bladder wash samples: p-AKT and p-ERK at baseline and after EGF +/- GDC-0941. The data set is classed as cell-based, human. How it is done:
Bladder washes from non-cancer (NC) patients (pts) (n=8) and confirmed/suspected bladder cancer (BC) pts (n=20) were collected using standard medical practice and shipped overnight on ice for processing within 24 hours. Antibodies against CD45, Cytokeratin (CK), and EpCAM were used to differentiate epithelial cells from leukocytes, while measurements of DNA aneuploidy (DAPI stain) allowed for distinction between tumor and normal epithelial cells. Signaling activity in the PI3K and MAP Kinase pathways was assessed by measuring intracellular levels of p-AKT and p-ERK both at baseline and in response to pathway modulation. A process similar to that shown in Example 1 was used.
(§1) Upon delivery, cells were pelleted, counted, rested for 1 hr at 37° C., followed by a 5 minute stimulation with EGF or vehicle+/−GDC-0941 200 nM added 1 hr prior to EGF addition to inhibit PI3K signaling After cell fixation and permeabilization, samples were stained with fluorophore-conjugated antibodies/DAPI cocktail, and the data acquired using multi-parametric flow cytometry. The epithelial bladder carcinoma cell line HT-1376 was used as a control for the epithelial phenotype and EGF signaling. A DNA index was determined using the lymphoid population in the pt samples as a diploid G0/G1 reference.

The test system of data set [3] is p-AKT and p-ERK in epithelial cells of pleural effusion. Kind of data set: SCNP of pleural effusion, patient MCSF-06 (non-small cell lung cancer): p-Akt and p-ERK. In kind it is cell-based, human. How it is done:
A procedure similar to that shown for Example 5 was performed. A pleural effusion was obtained from a patient (MCSF-06) with a diagnosis of non-small cell lung cancer with a white cell count of 6.8 million. This example has the same Purpose as Example 5 as applied to lung cancer. The HT-1376 epithelial bladder cancer cell line served as a positive control for EGF induced signaling.
SCNP contour plots identify p-Akt and p-ERK signaling in the epithelial cell compartment only. […] EGF stimulation (5 min., 37° C.) activates the PI3K and Ras/MEK pathways which are measured by p-Akt and p-ERK respectively. […] Median fluorescent values of p-Akt and p-ERK under each treatment condition (see FIG. 5). The control cell line was processed in parallel with the patient sample.

Data set [4] has the same test system. Kind of data set: SCNP of pleural effusion, patient MCSF-04 (non-small cell lung cancer): p-AKT and p-ERK. In kind it is cell-based, human. How it is done:
A procedure similar to that shown for Example 1 was performed. A pleural effusion was obtained from a patient (MCSF-04) with a diagnosis of non-small cell lung cancer with a white cell count of 21 million.
(§2) Purpose: (1) Evaluate ability to detect epithelial cells in the pleural effusion sample. (2) Measure DNA content to evaluate whether detected cells are possibly originating from the tumor (aneuploid). (3) measure basal level p-AKT and p-ERK signaling in epithelial cells. (4) Measure evoked signaling after EGF stimulation in the same cell populations. (5) Measure signaling inhibition when the EGF is added after incubation with a PI3K inhibitor (GDC-0941). (6) Culture cells in the presence and absence of EGF to observe possible growth promoting effects and to potentially characterize the signaling of cells that expand.
Gating Scheme: The epithelial phenotype is based on the cells being positive for EpCAM and Cytokeratin stains, while expressing low levels of CD45.
SCNP contour plots show signaling in the epithelial cell compartment only. […] EGF stimulation (5 min., 37° C.) activates the PI3K and Ras/MEK pathways which are measured by p-AKT and p-ERK respectively. Attenuation of the EGF→p-AKT induced signaling in the presence of GDC-0941.

The test system is the same in data set [5]. Kind of data set: SCNP of pleural effusion, patient MCSF-015 (non-small cell lung cancer): p-AKT and p-ERK. In kind it is cell-based, human. How it is done:
A procedure similar to that shown for Example 5 was performed. A pleural effusion was obtained from a patient (MCSF-015) with a diagnosis of non-small cell lung cancer with a white cell count of 150 million.
The HT-1376 epithelial bladder cancer cell line served as a positive control for EGF induced signaling. The control cell line was processed in parallel with the patient sample.
SCNP contour plots identify p-AKT and p-ERK signaling in the epithelial cell compartment only. […] EGF stimulation (5 min., 37° C.) activates the PI3K and Ras/MEK pathways which are measured by p-Akt and p-ERK respectively. […] Median fluorescent values of p-AKT and p-ERK under each treatment condition.

Data set [6] has as its system p-AKT and p-ERK in epithelial cells of ascites fluid. Kind of data set: SCNP of ascites fluid, patient MCSF-02 (biliary cancer): p-AKT and p-ERK. In kind it is cell-based, human. On the procedure:
A procedure similar to that shown for Example 5 was performed. Ascites fluid was obtained from a patient (MCSF-02) with a diagnosis of biliary cancer with a white cell count of 4.3 million. This example has the same purpose as Example 5 as applied to ascites fluid.
Gating Scheme: The epithelial phenotype is based on the cells being positive for EpCAM and cytokeratin, while expressing low levels of CD45. Positive staining for cleaved PARP (c-PARP) indicates apoptosis. DNA index: The DNA index of the epithelial cells is based on the DNA content of the cells in the epithelial gate divided by the DNA content of the lymphocytes.
The biliary specimen contained 0.17% epithelial cells that were mostly non-apoptotic. This small percentage equates to ˜10 cells/condition. From this small population EGF induced p-AKT signaling was observed. A 9-fold increase in p-AKT levels were observed after […]. EGF stimulation. Induced signaling was attenuated with a 1 hour pre-incubation with 200 nM GDC-0941 (“GDC”). […] This is in contrast to the control cell line.

The test system of the next data set is MDS patients. Particulars: cited from earlier work.
The next data set has as its system pleural effusion cells. In words: Culture of pleural effusion cells (MCSF-04) in presence and absence of EGF. In kind it is cell-based, human. How it is done: as §2
Cells in culture: 1 million cells were plated in two wells of a 24-well plate in the presence and absence of EGF. The cells visually appeared healthy after 48 hrs in culture with some cells with elongated appearance like an epithelial cells. Some very large round cells were also observed. At day 8, both cultures had adherent and non-adherent cells. Counts were performed. The well without EGF contained 400,000 viable, non-adherent cells while the well in the presence +EGF contained 800,000. The patient specimen contained 15.87% epithelial cells that were mostly non-apoptotic. The DNA index is 1.37 indicating the epithelial cells are aneuploid.

For another data set, the system named is HT-1376 cell line. In words: Control cell line HT-1376 processed with the ascites sample, EGF-induced p-Erk. The data set is classed as cell-based. The conditions noted are these: HT-1376 control cell line. On the procedure:
as §1
The cell line control has what appears to be a lower basal p-ERK level, however one must be careful when comparing absolute fluorescent levels between different cell types (ie, cell line vs primary cells) due to differences in autofluoresence and degree of non-specific antibody binding. […] The DNA index is near 1.0 indicating these cells are not aneuploid.

Another data set has as its system HT-1376 cells. In words: HT-1376 bladder cancer cells spiked into whole blood, EGF-induced pAKT and pERK. The data set is classed as cell-based. The conditions noted are these: HT-1376 in whole blood; 200 ng/mL EGF for 5 minutes at 37° C. How it is done: A procedure similar to that shown for Example 1 was performed.
Two aliquots of 1 million cells from a bladder cancer cell line, HT-1376, were spiked into 4 mls of whole blood in an effort to determine a lower limit of detection for bladder cancer cells in blood. The epithelial cell line, HT-1376 (ATCC #CRL-1472), which has high (positive) levels of cytokeratin, low (positive) levels for EpCAM, and negative for CD45. One aliquot was preincubated with PI3K inhibitor GDC-0941 at 10 uM and another was modulated with 200 ng/mL EGF for 5 minutes at 37° C. Another aliquot of whole blood contained no HT-1376 cells or other reagents. BD phosflow fix/lyse reagent was used followed by methanol. EGF was used as a modulator to induce pAKT and pERK responses, 9.4 and 3.7 fold responses respectively.

For `CS(=O)(=O)N1CCN(Cc2cc3nc(-c4cccc5[nH]ncc45)nc(N4CCOCC4)c3s2)CC1` [GDC-0941], the “effect on EGF-induced signaling in the positive samples” value in data set [1] (each of the 4 positive ascites or pleural effusion cases) was “inhibited”. In addition, the “prevention of EGF-induced p-AKT and p-ERK signaling” value in [2] (BC samples, GDC-0941 200 nM added 1 hr prior to EGF) is given as “preventable”. For the same compound, the “effect on EGF-induced p-Akt signaling” value in data set [3] (MCSF-06 epithelial cells) and in data set [5] (MCSF-015 epithelial cells) was “Attenuation; also recorded: attenuated” in each case. In addition, the “effect on basal p-Akt signaling” value in data set [3] (MCSF-06 epithelial cells) and in data set [5] (MCSF-015 epithelial cells) was “attenuated” each time. In addition, the “effect on p-ERK signaling” value in data set [3] (MCSF-06 epithelial cells) and in data set [5] (MCSF-015 epithelial cells) was “but not the p-ERK signaling” in each case. The “effect on EGF-induced p-AKT signaling” value in data set [4] (MCSF-04 epithelial cells, EGF added after incubation with GDC-0941) is reported as “attenuated; also recorded: Attenuation”; in data set [6] (MCSF-02, 1 hour pre-incubation with 200 nM GDC-0941), “attenuated”. In addition, the “effect on basal p-AKT signaling” value in data set [4] (MCSF-04 epithelial cells, GDC-0941 incubation) was “attenuated”. Moreover, the “effect on basal (unstim) p-AKT level” value in data set [6] (MCSF-02, 200 nM GDC-0941) was “inability of the PI3K inhibitor to decrease p-AKT beyond the basal”. The “basal p-ERK, unstimulated condition versus GDC containing sample” value in data set [6] (MCSF-02 epithelial cells) is on record as “higher than the GDC containing sample”.

As to `CCOC(=O)[C@@H](N)CCC(=O)N[C@@H](CSCc1ccccc1)C(=O)N[C@@H](C(=O)OCC)c1ccccc1` [TLK-199], in the data set on MDS patients, the “hematologic response in trial” value is “hematologic improvement in all three hematopoietic lineages”; the toxicities in trial result was “limited to infusion reactions, nausea, chills and bone pain”.

In the case of “EGF: Epidermal growth factor, growth factor used as modulator to induce p-AKT and p-ERK”, the “samples in which epithelial cells with inducible EGF signaling were identified” value in data set [1] (ascites or pleural effusion samples) is “⅘”. For the same compound, the “viable, non-adherent cells per well at day 8” value in the data set on pleural effusion cells (1 million cells plated, 24-well plate, presence of EGF (well without EGF 400,000)) is reported as 800,000 cells. Besides, the proliferation in culture result in the data set on pleural effusion cells (MCSF-04 cells, EGF induced condition) was “Proliferation was observed”. For the same compound, the “EGF induction of p-Erk in control cell line” value with HT-1376 cell line is “observed”. Besides, in data set [2] (3/10 BC evaluable bladder wash samples, 5 minute stimulation with EGF), the “EGF-induced p-AKT and p-ERK signaling, increase over baseline” value is recorded as 2-3 fold. Also, the “EGF-induced signaling in NC specimens” value in [2] (non-cancer (NC) bladder wash specimens, 5 minute stimulation with EGF) is recorded as “no EGF-induced signaling was observed”. Besides, the “EGF induction, above basal signaling, of p-Akt and p-ERK in epithelial cells” value in data set [3] (MCSF-06, EGF 5 min., 37° C.) is recorded as “strong”. For the same compound, in data set [4] (MCSF-04 pleural effusion, EGF 5 min., 37° C.), the “EGF induction of p-AKT and p-ERK in epithelial cells” value was “strong”. Moreover, the “EGF induction, above basal signaling, of p-Akt and p-ERK in epithelial cells” value in data set [5] (MCSF-015, EGF 5 min., 37° C.) is given as “strong”. Further, in [6] (MCSF-02 ascites), the “EGF induction of p-AKT in epithelial cells” value is listed as “strong” and the “EGF induction of p-Erk in epithelial cells” value is listed as “no significant increase above baseline; also recorded: no p-Erk induction above baseline was detected”. Moreover, in data set [6] (MCSF-02 ascites epithelial cells, 10 mins. EGF stimulation), the “increase in p-AKT levels after EGF stimulation” value was 9 fold. Moreover, in the data set on HT-1376 cells, the “EGF-induced pAKT response” value is 9.4 fold and the “EGF-induced pERK response” value was found to be 3.7 fold.

These data come from US20130129681A1, “METHODS FOR DIAGNOSING SOLID TUMORS” (NODALITY, INC., priority 2011, published 2013).
